These are literature values, as cited in publication PMC10720383, “Acetylcholinesterase Inhibition in Rats and Humans Following Acute Fenitrothion Exposure Predicted by Physiologically Based Kinetic Modeling-Facilitated Quantitative In Vitro to In Vivo Extrapolation” (Environmental Science & Technology, 2023).

For data set [1] the following is noted: humans; diazinon constant used for FNT; cited from earlier work.
The conditions of data set [2]: rats; diazinon constant used for FNT; cited from earlier work.
The conditions of data set [3]: assumed default for neutral and acidic compounds, no experimental data; cited from earlier work.
The conditions of data set [4]: not clear if experimental or in silico, cited from earlier work.

Where two headings read alike, the source gives them in different places.

Take `CCOP(=S)(OCC)Oc1cc(C)nc(C(C)C)n1` [diazinon]: in data set [1], the “absorption rate constant from intestine to liver (kaI)” value is 0.59 h⁻¹, the “absorption rate constant from stomach to liver (kaS)” value was 0.32 h⁻¹ and the “transfer rate constant from stomach to intestine (ksI)” value is 0.48 h⁻¹. Moreover, in data set [2], the “absorption rate constant from intestine to liver (kaI)” value is 0.59 h⁻¹, the “absorption rate constant from stomach to liver (kaS)” value was 0.1 h⁻¹ and the “transfer rate constant from stomach to intestine (ksI)” value is 0.48 h⁻¹.
Consider `Cc1cc(O)ccc1[N+](=O)[O-]` [MNP, 3-methyl-4-nitrophenol], for which the “blood plasma ratio (BPr)” value in data set [3] is 0.55. Also, the “LogP, reported data” value in data set [4] (ref OECD 1994) was 2.12. The “pKa, reported data” value in data set [4] (ref Shahpoury et al. 2018) was 7.33.
